US11370774B2, “Substituted benzofuran, benzopyrrole, benzothiophene, and structurally related complement inhibitors” (BioCryst Pharmaceuticals, Inc., priority 2018, dated 2022)

Molecular target: Factor D (Homo sapiens (Human), UniProt P00746)
Test: Factor D esterolytic assay (Z-Lys-SBzl substrate, DTNB, 405 nm)
Format: biochemical
Details: Z-Lys-SBzl 1.29 mM, pH 7.5, 10% DMSO, tested a minimum of three times, read-out: Measured Ki (IC50) Value for Compounds: IC50
In short: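 Human Factor D ([…]) with 1.29 mM Z-Lys-SBzl in 100 mM HEPES, 500 mM NaCl, pH 7.5, 10% DMSO; substrate added immediately or after room-temperature preincubation. Released thiol reacted with DTNB, rate followed at 405 nm for 600 sec, 690 nm background subtracted. IC50 from percent inhibition versus uninhibited rate, n≥3.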

Chain of Factor D (P00746 26-253): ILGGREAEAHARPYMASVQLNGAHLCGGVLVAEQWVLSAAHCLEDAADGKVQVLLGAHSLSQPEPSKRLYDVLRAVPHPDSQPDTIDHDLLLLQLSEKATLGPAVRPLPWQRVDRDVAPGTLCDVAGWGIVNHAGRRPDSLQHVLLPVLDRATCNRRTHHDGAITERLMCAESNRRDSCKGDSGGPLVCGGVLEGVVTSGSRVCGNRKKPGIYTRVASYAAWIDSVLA

SMILES	IC50 [nM]
NCc1cccc(-c2cc(NC(=O)[C@@H]3CCCN3C(=O)NCc3cccc(Cl)c3F)cc3ccoc23)c1 [Compound 507f, (S)—N2-(7-(3-(aminomethyl)phenyl)benzofuran-5-yl)-N1-(3-chloro-2-fluorobenzyl)pyrrolidine-1,2-dicarboxamide]	1000 to 10000
NCc1cccc(-c2c(F)c(COc3ccccc3CC(=O)O)cc3ccoc23)c1F [Compound 516c, 2-(2-((7-(3-(aminomethyl)-2-fluorophenyl)-6-fluorobenzofuran-5-yl)methoxy)phenyl)acetic acid]	< 1000
NCc1cccc(-c2cc(COc3ccccc3CC(=O)O)cc3c2ccn3C(F)(F)F)c1 [Compound 517d, 2-(2-((4-(3-(aminomethyl)phenyl)-1-(trifluoromethyl)-1H-indol-6-yl)methoxy)phenyl)acetic acid]	< 1000
NCc1cccc(-c2cc(COc3ccccc3CC(=O)O)cc3c2ccn3C(F)(F)F)c1F [Compound 518b, 2-(2-((4-(3-(aminomethyl)-2-fluorophenyl)-1-(trifluoromethyl)-1H-indol-6-yl)methoxy)phenyl)acetic acid]	< 1000
NCc1cc(-c2c(F)c(COc3ccccc3CC(=O)O)cc3ccoc23)ccn1 [Compound 519c, 2-(2-((7-(2-(aminomethyl)pyridin-4-yl)-6-fluorobenzofuran-5-yl)methoxy)phenyl)acetic acid]	< 1000
NCc1cccc(-c2cc(COc3cc(F)ccc3CC(=O)O)cc3cc(F)oc23)c1 [Compound 520c, 2-(2-((7-(3-(aminomethyl)phenyl)-2-fluorobenzofuran-5-yl)methoxy)-4-fluorophenyl)acetic acid]	< 1000
NCc1cccc(-c2cc(COc3cc(F)ccc3CC(=O)O)cc3cc(F)oc23)c1F [Compound 521b, 2-(2-((7-(3-(aminomethyl)-2-fluorophenyl)-2-fluorobenzofuran-5-yl)methoxy)-4-fluorophenyl)acetic acid]	< 1000
NCc1nccc(-c2cc(COc3cc(F)ccc3CC(=O)O)cc3cc(F)oc23)c1F [Compound 522c, 2-(2-((7-(2-(aminomethyl)-3-fluoropyridin-4-yl)-2-fluorobenzofuran-5-yl)methoxy)-4-fluorophenyl)acetic acid]	< 1000
NCc1cc(-c2cc(COc3cc(F)ccc3CC(=O)O)cc3cc(F)oc23)ccn1 [Compound 523b, 2-(2-((7-(2-(aminomethyl)pyridin-4-yl)-2-fluorobenzofuran-5-yl)methoxy)-4-fluorophenyl)acetic acid]	< 1000
Cc1ccc(CC(=O)O)c(OCc2cc(-c3cccc(CN)c3F)c3oc(F)cc3c2)c1 [Compound 524b, 2-(2-((7-(3-(aminomethyl)-2-fluorophenyl)-2-fluorobenzofuran-5-yl)methoxy)-4-methylphenyl)acetic acid]	< 1000
Cc1ccc(CC(=O)O)c(OCc2cc(-c3ccnc(CN)c3F)c3oc(F)cc3c2)c1 [Compound 525c, 2-(2-((7-(2-(aminomethyl)-3-fluoropyridin-4-yl)-2-fluorobenzofuran-5-yl)methoxy)-4-methylphenyl)acetic acid]	< 1000
Cc1ccc(CC(=O)O)c(OCc2cc(-c3ccnc(CN)c3)c3oc(F)cc3c2)c1 [Compound 526b, 2-(2-((7-(2-(aminomethyl)pyridin-4-yl)-2-fluorobenzofuran-5-yl)methoxy)-4-methylphenyl)acetic acid]	< 1000
COc1cccc(CC(=O)O)c1OCc1cc(-c2ccnc(CN)c2F)c2occc2c1 [Compound 527b, 2-(2-((7-(2-(aminomethyl)-3-fluoropyridin-4-yl)benzofuran-5-yl)methoxy)-3-methoxyphenyl)acetic acid]	< 1000
COCc1cc2cc(COc3ccc(F)cc3CC(=O)O)cc(-c3ccnc(CN)c3F)c2o1 [Compound 528d]	< 1000
COCc1cc2cc(COc3ccc(F)cc3CC(=O)O)cc(-c3ccnc(CN)c3)c2o1 [Compound 529b, 2-(2-((7-(2-(aminomethyl)pyridin-4-yl)-2-(methoxymethyl)benzofuran-5-yl)methoxy)-5-fluorophenyl)acetic acid]	< 1000
COCc1cc2cc(COc3cc(C(C)=O)ccc3CC(=O)O)cc(-c3ccnc(CN)c3F)c2o1 [Compound 530c, 2-(4-acetyl-2-((7-(2-(aminomethyl)-3-fluoropyridin-4-yl)-2-(methoxymethyl)benzofuran-5-yl)methoxy)phenyl)acetic acid]	< 1000
NCc1nccc(-c2c(F)c(COc3ccccc3CC(=O)O)cc3ccoc23)c1F [Compound 531c, 2-(2-((7-(2-(aminomethyl)-3-fluoropyridin-4-yl)-6-fluorobenzofuran-5-yl)methoxy)phenyl)acetic acid]	< 1000
NCc1cc(-c2cc(COc3ccccc3CC(=O)O)cc3c2ccn3C(F)(F)F)ccn1 [Compound 532d, 2-(2-((4-(2-(aminomethyl)pyridin-4-yl)-1-(trifluoromethyl)-1H-indol-6-yl)methoxy)phenyl)acetic acid]	< 1000
NCc1nccc(-c2cc(COc3ccccc3CC(=O)O)cc3c2ccn3C(F)(F)F)c1F [Compound 533c, 2-(2-((4-(2-(aminomethyl)-3-fluoropyridin-4-yl)-1-(trifluoromethyl)-1H-indol-6-yl)methoxy)phenyl)acetic acid]	< 1000

The remaining lines, values ahead:

IC50 [nM]	SMILES
< 1000	CC(=O)c1ccc(CC(=O)O)c(OCc2cc(-c3cccc(CN)c3)c3occ(C(F)(F)F)c3c2)c1 [Compound 506e, 2-(4-acetyl-2-((7-(3-(aminomethyl)phenyl)-3-(trifluoromethyl)benzofuran-5-yl)methoxy)phenyl)acetic acid]
< 1000	COc1cccc(CC(=O)O)c1OCc1cc(-c2cccc(CN)c2F)c2occc2c1 [Compound 508b, 2-(2-((7-(3-(aminomethyl)-2-fluorophenyl)benzofuran-5-yl)methoxy)-3-methoxyphenyl)acetic acid]
< 1000	NCc1nccc(-c2cc(COc3cc(F)ccc3CC(=O)O)c(F)c3ccoc23)c1F [Compound 509d, 2-(2-((7-(2-(aminomethyl)-3-fluoropyridin-4-yl)-4-fluorobenzofuran-5-yl)methoxy)-4-fluorophenyl)acetic acid]
< 1000	NCc1nccc(-c2cc(COc3c(F)cccc3CC(=O)O)cc3ccoc23)c1F [Compound 510d, 2-(2-((7-(2-(aminomethyl)-3-fluoropyridin-4-yl)benzofuran-5-yl)methoxy)-3-fluorophenyl)acetic acid]
< 1000	CC(=O)c1ccc(CC(=O)O)c(OCc2cc(-c3ccnc(CN)c3)c3occc3c2)c1 [Compound 511e, 2-(4-acetyl-2-((7-(2-(aminomethyl)pyridin-4-yl)benzofuran-5-yl)methoxy)phenyl)acetic acid]
< 1000	COc1cccc(CC(=O)O)c1OCc1cc(-c2ccnc(CN)c2)c2occc2c1 [Compound 512d, 2-(2-((7-(2-(aminomethyl)pyridin-4-yl)benzofuran-5-yl)methoxy)-3-methoxyphenyl)acetic acid]
< 1000	CC(C)n1ccc2c(-c3ccnc(CN)c3F)cc(COc3ccc(F)cc3CC(=O)O)cc21 [Compound 513c, 2-(2-((4-(2-(aminomethyl)-3-fluoropyridin-4-yl)-1-isopropyl-1H-indol-6-yl)methoxy)-5-fluorophenyl)acetic acid]
< 1000	COCc1cc2cc(COc3cc(F)ccc3CC(=O)O)cc(-c3ccnc(CN)c3F)c2o1 [Compound 514d, 2-(2-((7-(2-(aminomethyl)-3-fluoropyridin-4-yl)-2-(methoxymethyl)benzofuran-5-yl)methoxy)-4-fluorophenyl)acetic acid]
< 1000	COCc1cc2cc(COc3cc(F)ccc3CC(=O)O)cc(-c3ccnc(CN)c3)c2o1 [Compound 515c, 2-(2-((7-(2-(aminomethyl)pyridin-4-yl)-2-(methoxymethyl)benzofuran-5-yl)methoxy)-4-fluorophenyl)acetic acid]
